# Data from patent US11697648B2, “Fused pyrimidine pyridinone compounds as JAK inhibitors” (THERAVANCE BIOPHARMA R&D IP, LLC, priority 2019, dated 2023).
# Biological target: JAK3 (Homo sapiens (Human), UniProt P52333)
# Test: Biochemical JAK3 kinase assay (LanthaScreen)
# Details: not given
# Method in brief: (§1)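 GST-JAK + GFP-STAT1 peptide, HEPES pH 7.5/MgCl2/EGTA/Brij-35 buffer; cpd preincubation 1 h RT; ATP start, 1 h RT; stop with 10 mM EDTA + 2 nM Tb-anti-pSTAT1; TR-FRET 520/495. 4-parameter IC50 → pKi (Cheng-Prusoff).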
# JAK3, sequence (P52333 whole entry): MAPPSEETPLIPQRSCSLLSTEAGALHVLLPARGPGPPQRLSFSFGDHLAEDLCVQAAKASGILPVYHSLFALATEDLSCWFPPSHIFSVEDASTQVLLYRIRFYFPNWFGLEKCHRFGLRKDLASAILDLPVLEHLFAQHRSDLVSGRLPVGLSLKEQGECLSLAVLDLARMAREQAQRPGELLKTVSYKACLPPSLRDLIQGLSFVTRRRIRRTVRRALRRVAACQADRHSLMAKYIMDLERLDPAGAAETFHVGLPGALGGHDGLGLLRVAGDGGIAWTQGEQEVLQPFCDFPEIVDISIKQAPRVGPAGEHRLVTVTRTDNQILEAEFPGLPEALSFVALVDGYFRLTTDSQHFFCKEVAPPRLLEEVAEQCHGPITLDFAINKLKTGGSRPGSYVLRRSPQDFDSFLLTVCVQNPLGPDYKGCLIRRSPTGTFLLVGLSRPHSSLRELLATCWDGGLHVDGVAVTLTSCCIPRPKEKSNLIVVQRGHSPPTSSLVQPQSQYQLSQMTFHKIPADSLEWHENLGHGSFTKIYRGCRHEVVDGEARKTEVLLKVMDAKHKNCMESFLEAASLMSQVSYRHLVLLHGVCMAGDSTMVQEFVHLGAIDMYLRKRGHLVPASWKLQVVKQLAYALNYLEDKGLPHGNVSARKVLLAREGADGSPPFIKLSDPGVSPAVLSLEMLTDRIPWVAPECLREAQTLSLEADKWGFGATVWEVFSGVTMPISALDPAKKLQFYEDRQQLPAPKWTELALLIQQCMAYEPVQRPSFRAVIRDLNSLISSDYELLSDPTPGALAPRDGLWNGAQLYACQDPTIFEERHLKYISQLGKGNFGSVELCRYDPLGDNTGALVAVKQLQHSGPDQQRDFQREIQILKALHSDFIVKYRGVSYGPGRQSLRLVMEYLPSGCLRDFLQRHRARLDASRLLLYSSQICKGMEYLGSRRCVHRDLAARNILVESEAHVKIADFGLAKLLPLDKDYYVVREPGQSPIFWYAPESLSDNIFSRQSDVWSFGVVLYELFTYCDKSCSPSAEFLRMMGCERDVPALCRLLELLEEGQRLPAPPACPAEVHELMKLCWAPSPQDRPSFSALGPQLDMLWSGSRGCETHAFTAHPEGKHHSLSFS
row,Structure (SMILES),JAK 3 (pKi)
1,C=CC(=O)N1CCN(CCn2c(=O)ccc3cnc(Nc4ccc(N5CCN(C(=O)N(C)C)CC5)cc4)nc32)[C@@H](CC)C1 [Example 187],B (B represents pKi value between 9 and 10 (Ki between 1 nM and 0.1 nM))
2,C=CC(=O)N1CCN(CCn2c(=O)ccc3cnc(Nc4ccc(N5CCN(C(=O)CSC)CC5)cc4)nc32)[C@@H](CC)C1 [Example 188],B (B represents pKi value between 9 and 10 (Ki between 1 nM and 0.1 nM))
3,C=CC(=O)N1CCN(CCn2c(=O)ccc3cnc(Nc4ccc(N5CCN(S(C)(=O)=O)CC5)cc4)nc32)[C@@H](CC)C1 [Example 189],A (A represents a pKi value≥10 (Ki≤0.1 nM))
4,C=CC(=O)N1CCN(CCn2c(=O)ccc3cnc(Nc4ccc(N5CCN(C(=O)OC)CC5)cc4)nc32)[C@@H](CC)C1 [Example 190],A (A represents a pKi value≥10 (Ki≤0.1 nM))

# Same assay, conditions: selectivity JAK3 over JAK1, difference of pKi
row,Structure (SMILES),JAK3 (pKi)-JAK1 (pKi)
1,C=CC(=O)N1CCN(CCn2c(=O)ccc3cnc(Nc4ccc(N5CCN(C(=O)N(C)C)CC5)cc4)nc32)[C@@H](CC)C1 [Example 187],A (A represents a value of 3 or above)
2,C=CC(=O)N1CCN(CCn2c(=O)ccc3cnc(Nc4ccc(N5CCN(C(=O)CSC)CC5)cc4)nc32)[C@@H](CC)C1 [Example 188],A (A represents a value of 3 or above)
3,C=CC(=O)N1CCN(CCn2c(=O)ccc3cnc(Nc4ccc(N5CCN(S(C)(=O)=O)CC5)cc4)nc32)[C@@H](CC)C1 [Example 189],A (A represents a value of 3 or above)
4,C=CC(=O)N1CCN(CCn2c(=O)ccc3cnc(Nc4ccc(N5CCN(C(=O)OC)CC5)cc4)nc32)[C@@H](CC)C1 [Example 190],A (A represents a value of 3 or above)

# System: Caco-2 cell monolayers
# Test: Caco-2 permeation assay
# Type: in vitro ADME
# Details: 5 μM, A-B direction, with Verapamil (25 μM)
# Method in brief: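 Passive A-to-B permeability with P-gp inhibited by verapamil (25 μM); compound at 5 μM, n=2. Both compartments sampled at t0 and t120 and quantified by LC-MS/MS, giving apparent permeability in cm/sec from flux, area and concentration.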
row,Structure (SMILES),Caco Kp
1,C=CC(=O)N1CCN(CCn2c(=O)ccc3cnc(Nc4ccc(N5CCN(C(=O)N(C)C)CC5)cc4)nc32)[C@@H](CC)C1 [Example 187],C (C represents a value between 10×10^−6 and 30×10^−6 cm/sec)
2,C=CC(=O)N1CCN(CCn2c(=O)ccc3cnc(Nc4ccc(N5CCN(C(=O)CSC)CC5)cc4)nc32)[C@@H](CC)C1 [Example 188],C (C represents a value between 10×10^−6 and 30×10^−6 cm/sec)
3,C=CC(=O)N1CCN(CCn2c(=O)ccc3cnc(Nc4ccc(N5CCN(S(C)(=O)=O)CC5)cc4)nc32)[C@@H](CC)C1 [Example 189],B (B represents a value between 5×10^−6 and 10×10^−6 cm/sec)
4,C=CC(=O)N1CCN(CCn2c(=O)ccc3cnc(Nc4ccc(N5CCN(C(=O)OC)CC5)cc4)nc32)[C@@H](CC)C1 [Example 190],C (C represents a value between 10×10^−6 and 30×10^−6 cm/sec)

# Biological target: JAK1 (Homo sapiens (Human), UniProt P23458)
# Test: Biochemical JAK1 kinase assay (LanthaScreen)
# Details: not given
# Method in brief: as §1
# JAK1, sequence (P23458 whole entry): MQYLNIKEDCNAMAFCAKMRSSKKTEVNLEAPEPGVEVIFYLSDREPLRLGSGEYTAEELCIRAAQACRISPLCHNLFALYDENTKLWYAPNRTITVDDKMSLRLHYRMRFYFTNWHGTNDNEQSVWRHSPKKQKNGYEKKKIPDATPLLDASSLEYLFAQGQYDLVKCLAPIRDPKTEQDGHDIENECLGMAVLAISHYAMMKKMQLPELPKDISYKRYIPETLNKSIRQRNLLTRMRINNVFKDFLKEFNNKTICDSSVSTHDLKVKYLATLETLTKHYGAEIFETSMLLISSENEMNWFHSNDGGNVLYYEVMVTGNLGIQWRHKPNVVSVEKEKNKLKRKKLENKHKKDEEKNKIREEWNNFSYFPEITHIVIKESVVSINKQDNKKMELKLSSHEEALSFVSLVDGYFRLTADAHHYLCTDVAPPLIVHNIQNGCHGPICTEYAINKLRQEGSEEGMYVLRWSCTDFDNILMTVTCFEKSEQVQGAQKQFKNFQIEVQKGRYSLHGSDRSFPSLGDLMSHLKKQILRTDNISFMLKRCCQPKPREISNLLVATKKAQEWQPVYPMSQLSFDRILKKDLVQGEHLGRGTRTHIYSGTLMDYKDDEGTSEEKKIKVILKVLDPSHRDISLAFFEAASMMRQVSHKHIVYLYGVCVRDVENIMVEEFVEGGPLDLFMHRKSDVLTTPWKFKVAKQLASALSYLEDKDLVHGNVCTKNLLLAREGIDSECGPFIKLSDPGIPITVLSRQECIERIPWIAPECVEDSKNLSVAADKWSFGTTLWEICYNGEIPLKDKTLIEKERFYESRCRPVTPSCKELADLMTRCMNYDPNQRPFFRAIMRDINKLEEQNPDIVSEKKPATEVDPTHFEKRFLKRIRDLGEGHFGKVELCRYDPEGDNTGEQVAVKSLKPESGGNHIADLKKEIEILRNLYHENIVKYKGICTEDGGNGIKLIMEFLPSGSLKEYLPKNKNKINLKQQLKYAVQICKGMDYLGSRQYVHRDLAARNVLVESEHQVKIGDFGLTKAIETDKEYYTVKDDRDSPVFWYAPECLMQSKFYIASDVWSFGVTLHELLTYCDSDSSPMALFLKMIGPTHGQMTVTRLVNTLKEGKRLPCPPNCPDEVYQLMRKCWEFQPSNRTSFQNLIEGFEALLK
row,Structure (SMILES),JAK 1 (pKi)
1,C=CC(=O)N1CCN(CCn2c(=O)ccc3cnc(Nc4ccc(N5CCN(C(=O)N(C)C)CC5)cc4)nc32)[C@@H](CC)C1 [Example 187],E (E represents a pKi value of 7 or below (Ki of 100 nM or above))
2,C=CC(=O)N1CCN(CCn2c(=O)ccc3cnc(Nc4ccc(N5CCN(C(=O)CSC)CC5)cc4)nc32)[C@@H](CC)C1 [Example 188],E (E represents a pKi value of 7 or below (Ki of 100 nM or above))
3,C=CC(=O)N1CCN(CCn2c(=O)ccc3cnc(Nc4ccc(N5CCN(S(C)(=O)=O)CC5)cc4)nc32)[C@@H](CC)C1 [Example 189],E (E represents a pKi value of 7 or below (Ki of 100 nM or above))
4,C=CC(=O)N1CCN(CCn2c(=O)ccc3cnc(Nc4ccc(N5CCN(C(=O)OC)CC5)cc4)nc32)[C@@H](CC)C1 [Example 190],E (E represents a pKi value of 7 or below (Ki of 100 nM or above))

# System: IL-2 stimulated STAT5 phosphorylation in Tall-1 human T cell line (JAK3)
# Test: Cellular JAK3 potency assay: inhibition of IL-2 stimulated pSTAT5 in Tall-1 T cells
# Type: cell-based
# Details: IL-2 stimulated pSTAT5, Tall-1 T cells
# Method in brief: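 AlphaLISA SureFire Ultra measures STAT5 Tyr694/699 phosphorylation in lysed Tall-1 human T cells. Cells were exposed to compound for 1 h at 37 °C before a 30 min IL-2 challenge (300 ng/ml final). Values are pIC50 means with standard deviation from signal-versus-concentration curves.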
row,Structure (SMILES),Tall-1 (pIC50)
1,C=CC(=O)N1CCN(CCn2c(=O)ccc3cnc(Nc4ccc(N5CCN(C(=O)N(C)C)CC5)cc4)nc32)[C@@H](CC)C1 [Example 187],B (B represents a pC50 value between 6.7 (included) and 7.5 (IC50 between 200 nM and 32 nM))
2,C=CC(=O)N1CCN(CCn2c(=O)ccc3cnc(Nc4ccc(N5CCN(C(=O)CSC)CC5)cc4)nc32)[C@@H](CC)C1 [Example 188],B (B represents a pC50 value between 6.7 (included) and 7.5 (IC50 between 200 nM and 32 nM))
3,C=CC(=O)N1CCN(CCn2c(=O)ccc3cnc(Nc4ccc(N5CCN(S(C)(=O)=O)CC5)cc4)nc32)[C@@H](CC)C1 [Example 189],B (B represents a pC50 value between 6.7 (included) and 7.5 (IC50 between 200 nM and 32 nM))
4,C=CC(=O)N1CCN(CCn2c(=O)ccc3cnc(Nc4ccc(N5CCN(C(=O)OC)CC5)cc4)nc32)[C@@H](CC)C1 [Example 190],B (B represents a pC50 value between 6.7 (included) and 7.5 (IC50 between 200 nM and 32 nM))

# Biological target: JAK2 (Homo sapiens (Human), UniProt O60674)
# Test: Biochemical JAK2 kinase assay (LanthaScreen)
# Details: not given
# Method in brief: as §1
# JAK2, sequence (O60674 whole entry): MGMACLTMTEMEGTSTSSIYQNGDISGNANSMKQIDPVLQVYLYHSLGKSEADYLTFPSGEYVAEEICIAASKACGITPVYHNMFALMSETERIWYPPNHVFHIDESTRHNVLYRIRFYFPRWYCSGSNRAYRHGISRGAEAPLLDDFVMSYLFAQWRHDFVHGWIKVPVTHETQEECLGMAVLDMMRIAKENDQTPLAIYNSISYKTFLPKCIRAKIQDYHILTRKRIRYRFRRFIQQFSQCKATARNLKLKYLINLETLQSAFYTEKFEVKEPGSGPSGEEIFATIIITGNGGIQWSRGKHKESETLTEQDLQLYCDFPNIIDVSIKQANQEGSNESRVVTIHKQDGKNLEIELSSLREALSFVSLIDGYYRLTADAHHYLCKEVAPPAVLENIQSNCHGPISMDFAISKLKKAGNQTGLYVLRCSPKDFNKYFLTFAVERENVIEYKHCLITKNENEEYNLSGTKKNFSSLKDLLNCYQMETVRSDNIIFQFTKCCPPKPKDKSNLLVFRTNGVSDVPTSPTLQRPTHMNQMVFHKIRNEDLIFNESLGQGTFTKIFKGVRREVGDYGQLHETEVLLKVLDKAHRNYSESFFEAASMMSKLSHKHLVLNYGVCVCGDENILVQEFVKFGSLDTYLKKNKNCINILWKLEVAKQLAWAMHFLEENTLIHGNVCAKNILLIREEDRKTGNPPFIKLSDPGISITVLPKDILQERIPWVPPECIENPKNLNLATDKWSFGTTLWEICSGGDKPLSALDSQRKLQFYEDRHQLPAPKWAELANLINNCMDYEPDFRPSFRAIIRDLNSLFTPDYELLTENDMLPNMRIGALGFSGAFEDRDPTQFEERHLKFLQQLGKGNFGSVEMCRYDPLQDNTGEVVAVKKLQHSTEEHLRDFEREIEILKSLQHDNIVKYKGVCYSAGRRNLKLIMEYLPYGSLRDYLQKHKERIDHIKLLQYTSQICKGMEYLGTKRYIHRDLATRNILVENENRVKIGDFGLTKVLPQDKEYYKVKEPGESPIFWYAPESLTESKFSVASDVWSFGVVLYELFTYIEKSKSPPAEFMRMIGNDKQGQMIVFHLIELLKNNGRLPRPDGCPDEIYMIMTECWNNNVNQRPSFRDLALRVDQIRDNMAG
row,Structure (SMILES),JAK 2 (pKi)
1,C=CC(=O)N1CCN(CCn2c(=O)ccc3cnc(Nc4ccc(N5CCN(C(=O)N(C)C)CC5)cc4)nc32)[C@@H](CC)C1 [Example 187],E (E represents a pKi value of 7 or below (Ki of 100 nM or above))
2,C=CC(=O)N1CCN(CCn2c(=O)ccc3cnc(Nc4ccc(N5CCN(C(=O)CSC)CC5)cc4)nc32)[C@@H](CC)C1 [Example 188],E (E represents a pKi value of 7 or below (Ki of 100 nM or above))
3,C=CC(=O)N1CCN(CCn2c(=O)ccc3cnc(Nc4ccc(N5CCN(S(C)(=O)=O)CC5)cc4)nc32)[C@@H](CC)C1 [Example 189],E (E represents a pKi value of 7 or below (Ki of 100 nM or above))
4,C=CC(=O)N1CCN(CCn2c(=O)ccc3cnc(Nc4ccc(N5CCN(C(=O)OC)CC5)cc4)nc32)[C@@H](CC)C1 [Example 190],E (E represents a pKi value of 7 or below (Ki of 100 nM or above))

# Biological target: Tyk2 (Homo sapiens (Human), UniProt P29597)
# Test: Biochemical Tyk2 kinase assay (LanthaScreen)
# Details: not given
# Method in brief: as §1
# Tyk2, sequence (P29597 whole entry): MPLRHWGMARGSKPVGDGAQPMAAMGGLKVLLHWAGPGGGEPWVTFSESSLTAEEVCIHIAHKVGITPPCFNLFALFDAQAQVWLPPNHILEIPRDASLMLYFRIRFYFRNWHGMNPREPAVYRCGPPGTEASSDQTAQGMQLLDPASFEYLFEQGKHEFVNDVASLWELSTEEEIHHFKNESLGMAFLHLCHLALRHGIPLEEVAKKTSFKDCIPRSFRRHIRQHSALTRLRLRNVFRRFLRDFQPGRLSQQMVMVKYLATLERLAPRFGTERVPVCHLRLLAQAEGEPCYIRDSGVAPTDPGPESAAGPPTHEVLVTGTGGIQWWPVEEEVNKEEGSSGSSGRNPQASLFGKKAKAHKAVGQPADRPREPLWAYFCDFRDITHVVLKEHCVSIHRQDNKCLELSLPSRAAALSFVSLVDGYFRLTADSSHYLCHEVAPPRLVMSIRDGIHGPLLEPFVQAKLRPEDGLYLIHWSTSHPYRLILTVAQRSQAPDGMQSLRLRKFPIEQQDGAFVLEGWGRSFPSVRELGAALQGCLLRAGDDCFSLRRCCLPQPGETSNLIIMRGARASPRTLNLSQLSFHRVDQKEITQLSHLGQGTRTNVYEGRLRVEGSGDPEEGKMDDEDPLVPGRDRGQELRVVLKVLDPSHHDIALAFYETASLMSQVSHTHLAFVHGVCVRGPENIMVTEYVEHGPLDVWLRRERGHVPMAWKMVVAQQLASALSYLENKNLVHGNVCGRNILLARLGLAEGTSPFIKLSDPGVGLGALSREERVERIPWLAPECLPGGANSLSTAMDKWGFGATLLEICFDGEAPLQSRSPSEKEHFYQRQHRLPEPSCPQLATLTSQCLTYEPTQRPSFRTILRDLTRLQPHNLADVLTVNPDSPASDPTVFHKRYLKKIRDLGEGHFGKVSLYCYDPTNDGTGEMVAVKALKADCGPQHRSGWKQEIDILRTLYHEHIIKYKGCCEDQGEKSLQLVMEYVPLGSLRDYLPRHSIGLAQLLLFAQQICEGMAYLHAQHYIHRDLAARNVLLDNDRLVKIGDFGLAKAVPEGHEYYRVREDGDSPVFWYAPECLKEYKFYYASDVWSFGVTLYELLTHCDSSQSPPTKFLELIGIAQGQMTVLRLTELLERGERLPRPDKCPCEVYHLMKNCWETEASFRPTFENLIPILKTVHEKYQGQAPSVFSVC
row,Structure (SMILES),Tyk 2 (pKi)
1,C=CC(=O)N1CCN(CCn2c(=O)ccc3cnc(Nc4ccc(N5CCN(C(=O)N(C)C)CC5)cc4)nc32)[C@@H](CC)C1 [Example 187],E (E represents a pKi value of 7 or below (Ki of 100 nM or above))
2,C=CC(=O)N1CCN(CCn2c(=O)ccc3cnc(Nc4ccc(N5CCN(C(=O)CSC)CC5)cc4)nc32)[C@@H](CC)C1 [Example 188],E (E represents a pKi value of 7 or below (Ki of 100 nM or above))
3,C=CC(=O)N1CCN(CCn2c(=O)ccc3cnc(Nc4ccc(N5CCN(S(C)(=O)=O)CC5)cc4)nc32)[C@@H](CC)C1 [Example 189],E (E represents a pKi value of 7 or below (Ki of 100 nM or above))
4,C=CC(=O)N1CCN(CCn2c(=O)ccc3cnc(Nc4ccc(N5CCN(C(=O)OC)CC5)cc4)nc32)[C@@H](CC)C1 [Example 190],E (E represents a pKi value of 7 or below (Ki of 100 nM or above))
